In PMC12051055, “Spectroscopy and crystallography define carotenoid oxygenases as a new subclass of mononuclear non-heme Fe^II enzymes” (The Journal of Biological Chemistry, 2025):

Target: T1, CAO1 (Neurospora crassa carotenoid oxygenase 1) (Neurospora crassa, UniProt Q7S860)
T1 construct: gene cao-1
T1 sequence (Q7S860 1-526): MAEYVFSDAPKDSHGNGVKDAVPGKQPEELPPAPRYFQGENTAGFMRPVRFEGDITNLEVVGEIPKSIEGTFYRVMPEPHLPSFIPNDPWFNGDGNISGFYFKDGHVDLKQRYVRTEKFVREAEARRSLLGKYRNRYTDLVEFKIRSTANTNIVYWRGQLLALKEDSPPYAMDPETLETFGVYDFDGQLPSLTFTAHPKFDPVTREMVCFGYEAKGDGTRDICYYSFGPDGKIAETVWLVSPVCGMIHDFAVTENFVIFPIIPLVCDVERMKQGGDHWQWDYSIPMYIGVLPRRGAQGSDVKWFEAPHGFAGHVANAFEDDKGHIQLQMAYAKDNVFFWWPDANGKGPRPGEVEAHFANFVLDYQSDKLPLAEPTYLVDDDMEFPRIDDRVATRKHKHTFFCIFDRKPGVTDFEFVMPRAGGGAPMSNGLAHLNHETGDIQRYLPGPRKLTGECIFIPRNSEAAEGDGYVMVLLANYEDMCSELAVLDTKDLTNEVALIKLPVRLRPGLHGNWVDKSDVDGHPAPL
Test: UV-visible/CD titration of Fe(II)-CAO1 (anaerobic); also X-ray crystal structure, MCD, steady-state kinetics
Assay type: binding

SMILES: Oc1cc(O)cc(/C=C/c2ccc(O)c(O)c2)c1 [piceatannol]
- Kd: 0.05 µM
